Patent publication US5041426A, “Immune system enhancing 3-β-d-ribofuranosylthiazolo[4,5-d]pyridimine nucleosides and nucleotides” (priority 1988, dated 1991)

Tests used:
[1] = system: Mastocytoma (P815) tumor cells; assay: In vivo potentiation of cytotoxic lymphocytes activity against mastocytoma tumor cells; set-up: species or system mouse; conditions: for % Cytotoxicity: DBA/2 mice, compound 7 2 mg/mouse, interleukin-2 50 U per mouse
Experimental: ^a Ten mice in each group were inoculated with 2 × 10^6
tumor cells. After 5 hours, saline or nucleoside compound 7 solution (2
mg/mouse) was administered to each mouse. On days 3,5,7 or 9, spleen cell
were isolated and their cytotoxicity was determined against P815 tumor
cells as described in Gonzales and Sharma.
Compound 7 was tested to determine whether or not it can increase cytotoxic lymphocytes response against mastocytoma tumor cells. In the test mice were immunized with mastocytoma cells (P815) and after 5 hours compound 7 as a solution was given in a dose of […] per mouse.

[2] = system: Human Peripheral Blood Mononuclear Cells; assay: In vitro potentiation of IgM production by human PBMNC or B cells (ELISA); assay type: cell-based
Experimental: After incubation, supernatants were harvested and checked for […]

Rat Coronavirus = assay: Antiviral activity against rat coronavirus infection in suckling rats; assay type: in vivo; conditions: half daily doses at -24 and -18 h, of rats that died
Excerpt: Four to five day old suckling rats were infected intranasally with rat coronavirus. One day previously a divided intraperitoneal dose of compound 7 or placebo was given. As shown in the following Table 19, a high percentage of the rats treated with compound 7 survived this lung infection. Further the rats that died lived longer than the placebo-treated controls.
^b Of rats that died. Survivors lived through 21 days.

Human Coronavirus = assay: Antiviral activity against human coronavirus infection in 14 day old mice; conditions: half daily doses at -24 and -18 h, of mice that died
[3] = system: Reticulum-cell Sarcoma M5076; assay: Reduction of reticulum-cell sarcoma metastatic foci in mice; assay type: in vivo, mouse
Experimental: Utilizing the protocol of Alessandri, G., Giavazzi, R., Falautano, P., Spreafico, F., Garattini, S., and Mantovani, A., European J. Cancer, 17:651-658, 1981, the antimetastatic activity of Compound 7 is seen in a sarcoma M5076 tumor system.
Fragments of reticulum-cell sarcoma M5076 were introduced into mice. The animals were treated with compound 7 for 20 days at various dosages. After treatment, the required tissues were collected, fixed in Bouin's solution and subjected to microscopic observation to enumerate metastatic foci. The results are shown in table 26 as the number of metastatic foci and table 27 as the number of mice with metastatic foci. In table 26 both the range and the median number of foci for each test group is indicated.
^a Fragments of reticulumcell sarcoma M5076 (≈14 mg) were
implanted sc in the left flank of BDF1 female mice and ip bolus
injections of drug were initiated 24 hrs later. The drug was delivered on
the basis of 0.01 ml/g mouse weight. Control mice received a 0.09%
solution of NaCl delivered on the same basis. Seven mice were used per
treatment group. Treatment give qd for days 1- 20.

P388 = assay: Mean life span and viable tumor cells of P388 inoculated mice, by delivery schedule; assay type: in vivo, mouse; conditions: qd; for Postinoculation Life Span: pooled 37, 62 or 104 mg/kg/injection; for Change in Life Span / Viable Cells Day 6: pooled doses
Experimental: In this example as summarized in table 30, different drug delivery regimen were utilized for compound 7 against P388 in the mouse and the postinoculation life span, the change in life span and the number of viable tumor cells at day 6 measured. For this test the data shown are pooled by schedule without regard for dosage. Each treatment group included a total of 15 mice divided into sub-groups of 5 mice treated respectively with 37, 62 or 104 mg/kg/injection of drug per sub-group. After treatment the test animals were monitored for survival.
^a P388 ascites cells (1 × 10^6) were implanted ip in
BDF1 female mice on day 0, and ip bolus injections of drug were
delivered once daily on the days indicated. The drug was delivered on the
basis of 0.01 ml/g mouse weight. Control mice received a 0.09% solution o
NaCl delivered on the same basis.

YAC1 target cells = assay: Natural killer cell activity in nude/nude mice (in vivo treatment, spleen cells); set-up: species or system mouse
Excerpt: Compound 7 was also able to potentiate markedly the natural killer cell activity in T cell deficient (nude/nude) mice as is shown in Table 6.
^a Three mice in each group received saline or compound 7 through i.p
route, spleens were removed one day after the treatment, cells were
cells. Each value represents average ±SD cytotoxic activity of three

[4] = 62 mg/kg ip qd days 1-20, p < 0.005

With `Nc1nc2c(sc(=O)n2[C@@H]2O[C@H](CO)[C@@H](O)[C@H]2O)c(=O)[nH]1` [Compound 7, 5-Amino-3-β-D-ribofuranosylthiazolo[4,5-d]pyrimidine-2,7(6H)-dione] the “% Cytotoxicity” value ([1]; day 3, 4320 min) was 30%, the “% Cytotoxicity” value ([1]; day 5, 7200 min) was 24% and the “% Cytotoxicity” value ([1]; day 7, 10080 min) was 32%. The “% Cytotoxicity” value ([1]; day 9, 12960 min) was 27%, the “cytotoxicity versus control group” value ([1]; p<0.05) was “statistically significant higherly cytotoxicity than the control group” and the “increase of IgM over cultures without compound 7” value ([2]; SAC activated PBMNC) was “over a two fold increase”. For the same compound, the “increase in IgM production” value ([2]; up to) was “up to 34 fold”, the “Mean Survival Time” value (Rat Coronavirus; 50) was 10.1 ± 2.3 days and the “Mean Survival Time” value (Rat Coronavirus; 100) was 10.2 ± 1.8 days. The “Mean Survival Time” value (Rat Coronavirus; 200) was 13.0 ± 1.0 days, the “Mean Survival Time” value (Human Coronavirus; 50 mg/kg) was 6.9 ± 2.2 days and the “Mean Survival Time” value (Human Coronavirus; 100 mg/kg) was 7.2 ± 2.0 days. For the same compound, the “Mean Survival Time” value (Human Coronavirus; 200 mg/kg) was 7.0 ± 1.4 days, the “Mice With Metastatic Foci in Lung (+/7)” value ([3]; 37 mg/kg ip qd days 1-20) was 7/7 and the “Number of Metastatic Foci in Liver, Range” value (from here on “Number … in Liver, Range”) ([3]; 37 mg/kg ip qd days 1-20) was 0-17. The “Number of Metastatic Foci in Lung, Range” value ([3]; 37 mg/kg ip qd days 1-20) was 1-11, the “Number of Metastatic Foci in Liver, Medium” value (shortened to “Number … Medium”) ([3]; 37 mg/kg ip qd days 1-20, p < 0.005) was 1 and the “Number of Metastatic Foci in Lung, Median” value (shortened to “Number … Median”) ([3]; 37 mg/kg ip qd days 1-20, p < 0.01) was 6. The “Mice With Metastatic Foci in Liver (+/7)” value ([3]; 37 mg/kg ip qd days 1-20, p < 0.05) was 4/7, the “Mice With Metastatic Foci in Lung (+/7)” value ([3]; 62 mg/kg ip qd days 1-20) was 6/7 and the “Number … in Liver, Range” value ([3]; 62 mg/kg ip qd days 1-20) was 0-1. The “Number of Metastatic Foci in Lung, Range” value ([3]; 62 mg/kg ip qd days 1-20) was 0-29, the “Mice With Metastatic Foci in Liver (+/7)” value [3, 4] was 1/7 and the “Number … Medium” value [3, 4] was 0. For the same compound, the “Number … Median” value ([3]; 62 mg/kg ip qd days 1-20, p < 0.09) was 2, the “Number … in Liver, Range” value ([3]; 104 mg/kg ip qd days 1-20) was 0-0 and the “Number of Metastatic Foci in Lung, Range” value ([3]; 104 mg/kg ip qd days 1-20) was 0-4. For the same compound, the “Mice With Metastatic Foci in Liver (+/7)” value ([3]; 104 mg/kg ip qd days 1-20, p < 0.0005) was 0/7, the “Number … Medium” value ([3]; 104 mg/kg ip qd days 1-20, p < 0.0009) was 0 and the “Number … Median” value ([3]; 104 mg/kg ip qd days 1-20, p < 0.003) was 0. The “Mice With Metastatic Foci in Lung (+/7)” value ([3]; 104 mg/kg ip qd days 1-20, p < 0.025) was 3/7, the “Postinoculation Life Span” value (P388; day 2,4) was 8.73 ± 0.59 days and the “Change in Life Span” value (P388; day 2,4) was 7 % of Control. The “Viable Cells Day 6” value (P388; day 2,4) was 66 % of Control, the “Postinoculation Life Span” value (P388; day 2-6, p < 0.001) was 9.13 ± 0.52 days and the “Change in Life Span” value (P388; day 2-6) was 12 % of Control. For the same compound, the “Viable Cells Day 6” value (P388; day 2-6) was 49 % of Control, the “Postinoculation Life Span” value (P388; day 2) was 8.60 ± 0.51 days and the “Change in Life Span” value (P388; day 2) was 5 % of Control. The “Viable Cells Day 6” value (P388; day 2) was 73 % of Control, the “% Natural Killer Cell Cytotoxicity” value (YAC1 target cells; 1.67 mg i.p., E:T 50:1) was 43 ± 12% and the “% Natural Killer Cell Cytotoxicity” value (YAC1 target cells; 1.67 mg i.p., E:T 100:1) was 56 ± 12%. The “% Natural Killer Cell Cytotoxicity” value (YAC1 target cells; 1.67 mg i.p., E:T 150:1) was 61 ± 14%, the “% Natural Killer Cell Cytotoxicity” value (YAC1 target cells; 3.34 mg i.p., E:T 50:1) was 38 ± 6% and the “% Natural Killer Cell Cytotoxicity” value (YAC1 target cells; 3.34 mg i.p., E:T 100:1) was 56 ± 6%. For the same compound, the “% Natural Killer Cell Cytotoxicity” value (YAC1 target cells; 3.34 mg i.p., E:T 150:1) was 61 ± 12% and the “increase with respect to saline control” value (YAC1 target cells; both doses tested) was “over two fold”.
